Earlier results in patent US6509030B2, “Cultured fish carotenoid and polyphenol added feed for improving fish body color tone and fish meat brilliance” (Toshiyuki Sakiura, priority 2000, dated 2003).

chemical stability, acidic (acidic): very unstable | chemical stability, basic (basic): Unstable | chemical stability, neutral (neutral): Unstable
Compound: CC1=C(/C=C/C(C)=C/C=C/C(C)=C/C=C/C=C(C)/C=C/C=C(C)/C=C/C2=C(C)C(=O)[C@@H](O)CC2(C)C)C(C)(C)C[C@H](O)C1=O [Asthaxanthine, asthaxanthine]
